Here are results for 14 compounds from patent US4060527A, “Pyrido[2,3-c]-acridine-1-hydroxy-2-carboxylic acid derivatives” (Fuji Chemical Industries, Ltd., priority 1975, dated 1977).

Converted amounts (≈) assume the structure as drawn. Read-outs that look alike come from different tables or passages of the source.

Data set [1] deals with Staphylococcus aureus. The data set can be described thus: Antibacterial activity (MIC) against Staphylococcus aureus as Gram-positive bacterium. The format is cell-based. Particulars: Staphylococcus aureus; Table 3, class symbols; read-out: Antibacterial Activity (MIC) Staph. aureus. The procedure: (§1) Some of the compounds of this invention were tested as to their antibacterial activity (MIC, mcg/ml) against Staph. aureus as Gram-positive bacterium and E. coli as Gram-negative bacterium. In the table, the antibacterial activity of 0.09 to 1.25 mcg/ml. is indicated as A1, and the antibacterial activity of more than 1.25 mcg/ml. and not more than 2.5 mcg/ml. is indicated as A2.

Data set [2] concerns Escherichia coli. The data set can be described thus: Antibacterial activity (MIC) against Escherichia coli as Gram-negative bacterium. The data set is classed as cell-based. Particulars: Escherichia coli; Table 3, class symbols; read-out: Antibacterial Activity (MIC) E. coli. How it is done:
as §1

Data set [3] concerns Staphylococcus aureus. The experiment in a line: Antibacterial activity (MIC) against Staphylococcus aureus as Gram-positive bacterium. The format is cell-based. Particulars: for MBC: Table 1, bacteriocidal, read-out: Staphylococcus aureus bacteriocidal action; for MIC: Table 1, bacteriostatic, read-out: Staphylococcus aureus bacteriostatic action (MIC).
Data set [4] relates to Escherichia coli. The experiment in a line: Antibacterial activity (MIC) against Escherichia coli as Gram-negative bacterium. The conditions noted are these: for MBC: Table 1, bacteriocidal, read-out: Escherichia coli bacteriocidal action; for MIC: Table 1, bacteriostatic, read-out: Escherichia coli bacteriostatic action (MIC). The format is cell-based.
The next data set in a line: in vivo. Particulars: mouse.
Data set [5] is described as follows: Acute toxicity LD50 on mouse. The conditions noted are these: in vivo.
For data set [6] the following is noted: in vivo; cited from earlier work.

What is called MIC is the lowest concentration that inhibits growth of the organism. The LD50 is the dose at which mortality reaches 50%. Read a low LD50 as a more toxic substance. As to `O=C(O)c1cnc2ccc3cc4ccccc4nc3c2c1O` [Compound F-631], the MIC in the data set with Staphylococcus aureus [1] is 0.09 to 1.25 µg/mL (≈ 0.31 to 4.31 µM); in the data set with Escherichia coli [2], 0.09 to 1.25 µg/mL (≈ 0.31 to 4.31 µM); in the data set on Staphylococcus aureus [3], 1.25 µg/mL (≈ 4.31 µM); in the data set with Escherichia coli [4], 1.25 µg/mL (≈ 4.31 µM). Also, the MBC with Staphylococcus aureus [3] and in the data set on Escherichia coli [4] was 1.25 µg/mL (≈ 4.31 µM) each time. In addition, the LD50 in “in vivo” (iv) was 230 mg/kg; in the data set “in vivo” (po) it was > 5000 mg/kg; in data set [5] (sc) it was > 3000 mg/kg.

`Cc1cc2cc3ccccc3nc2c2c(O)c(C(=O)O)cnc12` [Compound F-632]: the MIC is 0.09 to 1.25 µg/mL (≈ 0.296 to 4.11 µM) in the data set on Staphylococcus aureus [1], 0.09 to 1.25 µg/mL (≈ 0.296 to 4.11 µM) in the data set with Escherichia coli [2], 1.25 µg/mL (≈ 4.11 µM) in the data set with Staphylococcus aureus [3] and 0.62 µg/mL (≈ 2.04 µM) in the data set with Escherichia coli [4]. For the same compound, the MBC in the data set on Staphylococcus aureus [3] was found to be 2.5 µg/mL (≈ 8.22 µM); in the data set on Escherichia coli [4], 1.25 µg/mL (≈ 4.11 µM). Also, the LD50 was 253 mg/kg in the data set “in vivo” (iv), > 5000 mg/kg in the data set “in vivo” (po) and > 3000 mg/kg in data set [5] (sc).

Turning to `O=C(O)c1cnc2ccc3c(-c4ccccc4)c4ccccc4nc3c2c1O` [Compound F-633], the MIC in the data set on Staphylococcus aureus [1] was 0.09 to 1.25 µg/mL (≈ 0.246 to 3.41 µM); in the data set with Escherichia coli [2], 0.09 to 1.25 µg/mL (≈ 0.246 to 3.41 µM); in the data set on Staphylococcus aureus [3] it was 1.25 µg/mL (≈ 3.41 µM); in the data set with Escherichia coli [4] it was 1.25 µg/mL (≈ 3.41 µM). Moreover, the MBC in the data set on Staphylococcus aureus [3] and with Escherichia coli [4] was 1.25 µg/mL (≈ 3.41 µM) each time. For the same compound, the LD50 is 245 mg/kg in the data set “in vivo” (iv), > 5000 mg/kg in the data set “in vivo” (po) and > 3000 mg/kg in data set [5] (sc).

With `CCCCc1c2ccccc2nc2c1ccc1ncc(C(=O)O)c(O)c12` [Compound F-634], the MIC is 0.09 to 1.25 µg/mL (≈ 0.26 to 3.61 µM) with Staphylococcus aureus [1], 0.09 to 1.25 µg/mL (≈ 0.26 to 3.61 µM) in the data set on Escherichia coli [2], 0.25 µg/mL (≈ 0.722 µM) in the data set with Staphylococcus aureus [3] and 0.62 µg/mL (≈ 1.79 µM) with Escherichia coli [4]. Besides, the MBC in the data set with Staphylococcus aureus [3] was 0.25 µg/mL (≈ 0.722 µM); in the data set on Escherichia coli [4] it was 0.62 µg/mL (≈ 1.79 µM). Moreover, the median lethal dose (LD50) in “in vivo” (iv) is 215 mg/kg; in “in vivo” (po), > 5000 mg/kg; in data set [5] (sc) it was > 3000 mg/kg.

With `CCc1c2ccccc2nc2c1ccc1ncc(C(=O)O)c(O)c12` [Compound F-635], the MIC is 0.09 to 1.25 µg/mL (≈ 0.283 to 3.93 µM) in the data set with Staphylococcus aureus [1], 0.09 to 1.25 µg/mL (≈ 0.283 to 3.93 µM) in the data set on Escherichia coli [2], 0.62 µg/mL (≈ 1.95 µM) with Staphylococcus aureus [3] and 1.25 µg/mL (≈ 3.93 µM) in the data set with Escherichia coli [4]. In addition, the MBC in the data set with Staphylococcus aureus [3] was 0.62 µg/mL (≈ 1.95 µM); in the data set with Escherichia coli [4], 1.25 µg/mL (≈ 3.93 µM). The results for the LD50 (in the data set “in vivo” (iv); in the data set “in vivo” (po); in data set [5] (sc)) were 186 mg/kg, > 5000 mg/kg and > 3000 mg/kg, respectively.

`Cc1c2ccccc2nc2c1ccc1ncc(C(=O)O)c(O)c12` [Compound F-636]: the MIC in the data set on Staphylococcus aureus [1] is 0.09 to 1.25 µg/mL (≈ 0.296 to 4.11 µM); in the data set on Escherichia coli [2] it was 0.09 to 1.25 µg/mL (≈ 0.296 to 4.11 µM); in the data set with Staphylococcus aureus [3] it was 1.25 µg/mL (≈ 4.11 µM); with Escherichia coli [4] it was 1.25 µg/mL (≈ 4.11 µM). The MBC with Staphylococcus aureus [3] was found to be 1.25 µg/mL (≈ 4.11 µM); in the data set on Escherichia coli [4] it was 2.5 µg/mL (≈ 8.22 µM). Further, the LD50 was 235 mg/kg in “in vivo” (iv), > 5000 mg/kg in “in vivo” (po) and > 3000 mg/kg in data set [5] (sc).

`Cc1ccc2nc3c(ccc4ncc(C(=O)O)c(O)c43)cc2c1` [Compound F-637]: the MIC was 0.09 to 1.25 µg/mL (≈ 0.296 to 4.11 µM) in the data set with Staphylococcus aureus [1], 0.09 to 1.25 µg/mL (≈ 0.296 to 4.11 µM) in the data set with Escherichia coli [2], 1.25 µg/mL (≈ 4.11 µM) with Staphylococcus aureus [3] and 0.62 µg/mL (≈ 2.04 µM) in the data set on Escherichia coli [4]. Further, the MBC is 2.5 µg/mL (≈ 8.22 µM) with Staphylococcus aureus [3] and 1.25 µg/mL (≈ 4.11 µM) in the data set with Escherichia coli [4]. The 50% lethal dose (LD50) was 256 mg/kg in the data set “in vivo” (iv), > 5000 mg/kg in the data set “in vivo” (po) and > 3000 mg/kg in data set [5] (sc).

For `O=C(O)c1cnc2c(O)cc3cc4ccccc4nc3c2c1O` [Compound F-929, Pyrido[2,3-c]-1,5-dihydroxy-2-carboxylic acid], the MIC with Staphylococcus aureus [1] and with Escherichia coli [2] was 0.09 to 1.25 µg/mL (≈ 0.294 to 4.08 µM) each time.

Turning to `O=C(O)c1cnc2ccc3c(O)c4ccccc4nc3c2c1O` [Compound F-930, Pyrido[2,3-c]-1,7-dihydroxy-2-carboxylic acid], the MIC in the data set on Staphylococcus aureus [1] and with Escherichia coli [2] was 0.09 to 1.25 µg/mL (≈ 0.294 to 4.08 µM) each time.

Turning to `O=C(O)c1cnc2ccc3cc4cc(O)ccc4nc3c2c1O` [Compound F-931, Pyrido[2,3-c]-1,9-dihydroxy-2-carboxylic acid], the MIC with Staphylococcus aureus [1] and in the data set on Escherichia coli [2] was 0.09 to 1.25 µg/mL (≈ 0.294 to 4.08 µM) each time.

Consider `O=C(O)c1cnc2ccc3cc4cccc(O)c4nc3c2c1O` [Compound F-932, Pyrido[2,3-c]-1,11-dihydroxy-2-carboxylic acid], for which the MIC with Staphylococcus aureus [1] and in the data set on Escherichia coli [2] was 0.09 to 1.25 µg/mL (≈ 0.294 to 4.08 µM) in each case.

On to `O=C(O)c1ccc2nc3c(ccc4ncc(C(=O)O)c(O)c43)cc2c1` [Compound F-935, Pyrido[2,3-c]-1-hydroxy-2,9-dicarboxylic acid], for which the MIC in the data set on Staphylococcus aureus [1] and with Escherichia coli [2] was 1.25 to 2.5 µg/mL (≈ 3.74 to 7.48 µM) throughout.

With `CCn1cc(C(=O)O)c(=O)c2ccc(C)nc21` [Nalidixic acid, reference compound], the minimum inhibitory concentration (MIC) in the data set on Staphylococcus aureus [3] was 125 µg/mL (≈ 538 µM); with Escherichia coli [4], 6.25 µg/mL (≈ 26.9 µM). Also, the MBC in the data set on Escherichia coli [4] stood at 6.25 µg/mL (≈ 26.9 µM). Further, the figures for the LD50 in data set [5] (iv), in data set [5] (po) and in data set [5] (sc) were 176 mg/kg, 3300 mg/kg and 500 mg/kg, respectively.

In the case of acriflavin, the toxicity result in data set [6] is “fairly high toxicity, and exhibit high toxicity in internal administration”.
